In US20240011070A1, “METHODS AND COMPOSITIONS FOR PROTEASE REPORTER ASSAYS AND MODULATORS” (712 North Inc., priority 2020, published 2024):
Entries after “also recorded” stand apart in the source; their conditions may differ. Like-named read-outs stand apart in the source and are kept apart here.

How the values were obtained:
OMA1 protease [1] = molecular target: T1, OMA1 protease (Homo sapiens, UniProt Q96E52); test: Rep #15 / Luke-S1 assay for OMA1 inhibitors (preincubation with test compound, then OMA1 activator); format: cell-based; design: The OMA 1 enzyme is dormant under physiological cell culture conditions in these cells; endogenous in cells; details: 500 μM phenanthroline 1 hour, then 10 μM CCCP 30 minutes
T1 sequence (Q96E52 144-524): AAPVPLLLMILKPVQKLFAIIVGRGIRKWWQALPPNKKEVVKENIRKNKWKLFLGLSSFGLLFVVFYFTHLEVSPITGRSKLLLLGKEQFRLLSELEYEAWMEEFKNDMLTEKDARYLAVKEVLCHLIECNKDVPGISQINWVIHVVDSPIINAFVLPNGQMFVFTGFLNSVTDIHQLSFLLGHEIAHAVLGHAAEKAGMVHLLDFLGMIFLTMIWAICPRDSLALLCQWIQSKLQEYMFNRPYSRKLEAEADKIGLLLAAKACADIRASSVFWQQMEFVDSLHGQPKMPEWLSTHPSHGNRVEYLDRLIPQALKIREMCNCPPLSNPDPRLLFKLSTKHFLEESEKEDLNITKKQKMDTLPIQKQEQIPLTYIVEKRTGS
Description: Example 2 refers to FIG. 4 and illustrates hydrolysis of reporter #01 and reporter #15. For this example, transfected cells were selected by puromycin. Reporter cells were exposed for 30 minutes to 10 μM CCCP before being harvested in RIPA buffer and subjected to 12% SDS-PAGE followed by Western-blotting. […] Full-length reporter #01 has a predicted size of 39.6 kDa but was not detected in Western blots. […] At the same time, reporter #15 is not processed upon import, but migrated at its expected size of 31.9 kDa. (Example 7 establishes mitochondrial import by showing co-migration of reporter #15 with OPA1 and OMA1 in mitochondria-enriched fractions.) Reporter #15 appears to be more abundant and stable, which may explain its better performance. […] This provides additional evidence that reporter #15 is indeed localized in mitochondria where it is recognized and hydrolyzed by OMA1. […] Therefore, phenanthroline was used as a positive control in the reporter assay. If reporter #15 indeed is cleaved by OMA1, then phenanthroline should prevent this at least to a certain extend by inhibiting OMA1 and accordingly preserving the signal. Hek293T cells were transfected with reporter gene #15 as described in the preceding example. […] After 30 minutes, the medium was replaced with furimazine (1:100 in OptiMEM), and bioluminescence measured as described in Example 1. […]

OMA1 protease [2] = molecular target: T1, OMA1 protease; test: cell-based
Source text: Example 1 provides a nonlimiting example of generation and use of a reporter of present invention and illustrates its function. To this end, generation and use of reporter gene #01 (SEQ ID NO: 01) and reporter gene #15 (SEQ ID NO: 15) are described and their function compared to each other. The general design of a reporter of present invention is illustrated in FIG. 1A and its working principle in FIG. 1B. A reporter in general, and reporter gene #01 and reporter gene #15 in particular, can be generated as follows. DNA sequences of a reporter may be codon-optimized in silico or by any other way for expression in a suitable host. DNA sequences of reporter genes #01 and #15 were codon-optimized for expression in humans (SEQ ID NO: 02 and SEQ ID NO: 16, respectively). The (optimized) sequences were synthesized and cloned into a pcDNA3.1 expression vector under the control of a CMV promotor (see FIG. 1 for an illustration of such vector). Of course, an expression system and a host should match for best results. The host in this example were Hek293T cells, which were maintained under standard culture conditions in DMEM with 10% Fetal Bovine Serum and 1% Pen/Strep. For an experiment, Hek293T cells were seeded in opaque white tissue-culture treated 96-well plates at 80% confluency and transfected with vectors carrying reporter gene #01 and reporter gene #15 and 24 hours later incubated for 30 minutes at 37° C. in OptiMEM or in OptiMEM with 10 μM CCCP. After 30 minutes, the OptiMEM cell-culture media was replaced with luciferase substrate (furimazine, Promega) diluted 1:100 in OptiMEM, and bioluminescence was measured with a Fluoroskan Ascent FL (Thermo Scientific) using a 517 nm single-pass filter and 200 milliseconds integration time. […] Reporter #01 comprises a large part of OPA1's amino-terminus as mitochondrial targeting sequence, which is cleaved by the mitochondrial processing peptidase upon mitochondrial import (see Example 2). Reporter #15 was initially envisioned as a control for reporter #01. Reporter #15 therefore lacks the first 66 amino acids of reporter #01 believed to be essential for mitochondrial import.
Example 5 illustrates how mitochondrial toxicity can be measured with reporter and assays of present invention. The OMA1-OPA1 pathway basically serves as a “canary-in-the-coalmine” for a mitochondrial deterioration. […] Hek293T cells expressing reporter #01 and #15 were exposed to CCCP, tipranavir and sorafenib (in OptiMEM) for 30 minutes before the medium was replaced with furimazine (1:100), and bioluminescence measured.

NanoLuc luciferase = molecular target: T2, NanoLuc luciferase (Oplophorus gracilirostris, UniProt Q9GV45, A31E/A60N/A81I/F95D/I117V/K70R/L54V/L99Q/M102K/N193R/P142E/Q151K/Q38R/Q45L/V71I/Y165I); test: Luke (native NanoLuc) control cell assay in Hek293T cells; format: cell-based
T2 construct: expressed in transfected cells; host or cells: 'Luke' cells
T2 sequence (Q9GV45 with tags, fused parts or gaps with the stated changes): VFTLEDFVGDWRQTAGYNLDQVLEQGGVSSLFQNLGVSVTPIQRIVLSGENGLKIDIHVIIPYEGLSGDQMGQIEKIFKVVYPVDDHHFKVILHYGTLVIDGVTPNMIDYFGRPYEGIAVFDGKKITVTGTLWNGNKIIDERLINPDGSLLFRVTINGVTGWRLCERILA
Source text: Example 6 refers to FIG. 11 and introduces the Luke-S1 reporter cell line, which is based on a modified NanoLuc complementation system (Dixon, et al. ACS Chem Biol (2016) 11(2): 400-8). […] Luke-S1 is targeted to the mitochondrial inner membrane by an 86 amino acid portion of OPA1's c-terminus with the protein sequence SEQ ID NO: 27 and the DNA sequence SEQ ID NO:28. A reporter in which the S1 site was replaced by a TEV cleavage site (referred to as ‘Luke-TEV’) and the native NanoLuc enzyme (referred to as ‘Luke’) served as controls.

OMA1 protease [3] = molecular target: OMA1 protease (Mus musculus, UniProt Q9D8H7); details: Neuro2A cells
Sequence of OMA1 protease (Mus musculus, UniProt Q9D8H7) (Q9D8H7 140-521): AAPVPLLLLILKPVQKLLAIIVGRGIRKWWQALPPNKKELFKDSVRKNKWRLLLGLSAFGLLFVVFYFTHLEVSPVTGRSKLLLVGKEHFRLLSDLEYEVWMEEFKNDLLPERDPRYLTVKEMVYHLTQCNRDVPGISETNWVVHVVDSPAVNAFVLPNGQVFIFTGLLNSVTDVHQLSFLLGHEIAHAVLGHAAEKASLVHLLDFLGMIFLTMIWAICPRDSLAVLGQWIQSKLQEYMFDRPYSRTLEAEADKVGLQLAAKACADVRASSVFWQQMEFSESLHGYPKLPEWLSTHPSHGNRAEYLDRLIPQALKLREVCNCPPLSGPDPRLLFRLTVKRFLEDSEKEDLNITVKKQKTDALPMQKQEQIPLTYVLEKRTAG
Source text: In this example, the S1-cleavage site of reporter #15 was replaced with a TEV-cleavage site (see also Example 6). Neuro2A cells were transfected with reporter #15-S1 and reporter #15-TEV and selected by puromycin. […] FIG. 7 provides an overview of the arrangement of elements of different reporter genes, which comprise inter alia the amino acid sequences of SEQ ID NO: 01 (Rep #01), SEQ ID NO: 03 (Rep #04), SEQ ID NO: 09 (Rep #08), SEQ ID NO: 13 (Rep #10), and SEQ ID NO: 15 (Rep #15).

L-OPA1 = test: OPA1 hydrolysis in Hek293T cells by Western blot; format: cell-based; details: 30 minutes
Source text: (§1) OPA1 hydrolysis can be monitored by Western blotting. […] The predicted size of full-length Luke-S1 is 31.8 kDa.

OMA1 protease [4] = molecular target: T1, OMA1 protease; test: Luke-TEV (TEV site instead of S1) reporter assay in Hek293T cells; format: cell-based; design: The OMA 1 enzyme is dormant under physiological cell culture conditions in these cells; endogenous in cells
OMA1 protease [5] = molecular target: T1, OMA1 protease; test: Reporter hydrolysis in Hek293T reporter cells by Western blot; format: cell-based; design: The OMA 1 enzyme is dormant under physiological cell culture conditions in these cells; endogenous in cells; details: for Luke-S1 reporter cleavage in Western blots / Luke-TEV reporter cleavage in Western blots: 3 μM CCCP or 100 nM valinomycin
Description: For this example, transfected cells were selected by puromycin. […] […] If reporter #15 indeed is cleaved by OMA1, then phenanthroline should prevent this at least to a certain extend by inhibiting OMA1 and accordingly preserving the signal. Hek293T cells were transfected with reporter gene #15 as described in the preceding example. After 24 hours, the transfected cells were incubated with 500 μM phenanthroline in OptiMEM. After 1 hour of pretreatment, CCCP in OptiMEM/phenanthroline was added to a final concentration of 10 μM CCCP and cells incubated for another 30 minutes at 37° C. After 30 minutes, the medium was replaced with furimazine (1:100 in OptiMEM), and bioluminescence measured as described in Example 1.
as §1

OMA1 protease [6] = molecular target: T1, OMA1 protease; test: Rep #01 luciferase reporter assay in Hek293T cells; details: for bioluminescence of reporter #01 (mitochondrial toxicity): Hek293T cells exposed 30 minutes
Source text: Example 1 provides a nonlimiting example of generation and use of a reporter of present invention and illustrates its function. To this end, generation and use of reporter gene #01 (SEQ ID NO: 01) and reporter gene #15 (SEQ ID NO: 15) are described and their function compared to each other. The general design of a reporter of present invention is illustrated in FIG. 1A and its working principle in FIG. 1B. A reporter in general, and reporter gene #01 and reporter gene #15 in particular, can be generated as follows. DNA sequences of a reporter may be codon-optimized in silico or by any other way for expression in a suitable host. DNA sequences of reporter genes #01 and #15 were codon-optimized for expression in humans (SEQ ID NO: 02 and SEQ ID NO: 16, respectively). The (optimized) sequences were synthesized and cloned into a pcDNA3.1 expression vector under the control of a CMV promotor (see FIG. 1 for an illustration of such vector). Of course, an expression system and a host should match for best results. The host in this example were Hek293T cells, which were maintained under standard culture conditions in DMEM with 10% Fetal Bovine Serum and 1% Pen/Strep. For an experiment, Hek293T cells were seeded in opaque white tissue-culture treated 96-well plates at 80% confluency and transfected with vectors carrying reporter gene #01 and reporter gene #15 and 24 hours later incubated for 30 minutes at 37° C. in OptiMEM or in OptiMEM with 10 μM CCCP. After 30 minutes, the OptiMEM cell-culture media was replaced with luciferase substrate (furimazine, Promega) diluted 1:100 in OptiMEM, and bioluminescence was measured with a Fluoroskan Ascent FL (Thermo Scientific) using a 517 nm single-pass filter and 200 milliseconds integration time. […]
Example 5 illustrates how mitochondrial toxicity can be measured with reporter and assays of present invention. […] Hek293T cells expressing reporter #01 and #15 were exposed to CCCP, tipranavir and sorafenib (in OptiMEM) for 30 minutes before the medium was replaced with furimazine (1:100), and bioluminescence measured.

c1cnc2c(c1)ccc1cccnc12 [phenanthroline]
bioluminescence signal of reporter #15 after pretreatment (OMA1 protease [1]): prevented reporter #15 deactivation and maintained the bioluminescence signal; also recorded: largely preserved

CC(C)[C@@H]1NC(=O)[C@H](C)OC(=O)[C@@H](C(C)C)NC(=O)[C@@H](C(C)C)OC(=O)[C@H](C(C)C)NC(=O)[C@H](C)OC(=O)[C@@H](C(C)C)NC(=O)[C@@H](C(C)C)OC(=O)[C@H](C(C)C)NC(=O)[C@H](C)OC(=O)[C@@H](C(C)C)NC(=O)[C@@H](C(C)C)OC1=O [valinomycin]
EC50 (OMA1 protease [2]): 0.0176 µM | Luke-S1 signal, cells transfected with OMA1 siRNA (OMA1 protease [2]; 100 nM valinomycin, 30 minutes): no significant signal reduction | Luke-S1 signal, cells transfected with control siRNA (OMA1 protease [2]; 100 nM valinomycin, 30 minutes): significant signal reduction | real-time bioluminescence versus cells without valinomycin (OMA1 protease [2]; Luke-S1, 100 nM valinomycin added with luciferase substrate, 25 minutes): marked signal reduction from the start of the measurement | signal intensity normalized to untreated cells (OMA1 protease [2]; valinomycin treated controls of the cancer drug screen, untreated = 100%): 18.5% | real-time bioluminescence versus cells without valinomycin (NanoLuc luciferase; Luke, 100 nM valinomycin added with luciferase substrate, after 10 minutes): no notable differences | effect on Luke bioluminescence (NanoLuc luciferase; dose-response, 30 minutes): no effects | half maximal effective concentration (EC50) (OMA1 protease [3]; reporter #15-S1, 30 minutes): low nanomolar range | half maximal effective concentration (EC50) (OMA1 protease [3]; reporter #15-TEV, 30 minutes): low nanomolar range | OPA1 hydrolysis in Western blots (L-OPA1; 0.1 μM (100 nM) valinomycin): sufficed for OPA1 cleavage; also recorded: complete L-OPA1 proteolysis | real-time bioluminescence versus cells without valinomycin (OMA1 protease [4]; Luke-TEV, 100 nM valinomycin added with luciferase substrate): much smaller difference | effect on Luke-TEV signal (OMA1 protease [4]; dose-response, 30 minutes): only a minor signal reduction | Luke-S1 reporter cleavage in Western blots (OMA1 protease [5]): induced cleavage of the Luke-S1 reporter | Luke-TEV reporter cleavage in Western blots (OMA1 protease [5]): cleaved

N#CC(C#N)=NNc1cccc(Cl)c1 [CCCP, carbonyl cyanide m-chlorophenyl hydrazone]
bioluminescence signal of reporter #01 (OMA1 protease [6]; 10 μM CCCP, 30 minutes): significantly reduced | bioluminescence of reporter #01 (mitochondrial toxicity) (OMA1 protease [6]): significantly reduced bioluminescence | OPA1 hydrolysis in Western blots (L-OPA1; 3 μM CCCP): complete disappearance of L-OPA1 isoforms; also recorded: complete L-OPA1 proteolysis | Luke-S1 reporter cleavage in Western blots (OMA1 protease [5]): induced cleavage of the Luke-S1 reporter | Luke-TEV reporter cleavage in Western blots (OMA1 protease [5]): cleaved | processing of reporter #01 in Western blot (OMA1 protease [5]; 10 μM CCCP, 30 minutes): led to processing | processing of reporter #15 in Western blot (OMA1 protease [5]; 10 μM CCCP, 30 minutes): led to processing

CCC[C@@]1(CCc2ccccc2)CC(O)=C([C@H](CC)c2cccc(NS(=O)(=O)c3ccc(C(F)(F)F)cn3)c2)C(=O)O1 [tipranavir]
EC50 (OMA1 protease [2]): 9 µM | bioluminescence of reporter #01 (mitochondrial toxicity) (OMA1 protease [6]): deactivated; also recorded: significantly reduced bioluminescence

COC1=CC(=O)O[C@@H](/C=C/c2ccccc2)C1 [kavain, Kavain]
EC50 (OMA1 protease [2]): 14 µM
